Assay results published in the NIST ThermoML archive (doi:10.1016/j.jct.2012.03.020).
± gives the expanded uncertainty stated by the source.

How the values were obtained:
[1] = for mass density: 101.33 kPa, Liquid, Pycnometric method; for Normal melting temperature: Crystal, visual observation
[2] = refractive index (Na D-line) (dimensionless); conditions: 101.33 kPa, Liquid, Standard Abbe refractometry

Row | Compound | mass density ([1]; 298.15 K) [kg/m3] | mass density ([1]; 303.15 K) [kg/m3] | mass density ([1]; 308.15 K) [kg/m3] | mass density ([1]; 313.15 K) [kg/m3] | refractive index ([2]; 298.15 K) | refractive index ([2]; 303.15 K) | refractive index ([2]; 308.15 K) | refractive index ([2]; 313.15 K) | Normal melting temperature [1] [°C]
1 | CN(C)C=O [dimethylformamide] | 945.2 ± 0.9 | 939.7 ± 0.8 | 935.6 ± 0.8 | 930.2 ± 0.9 | 1.427 ± 0.0004 | 1.4253 ± 0.0004 | 1.423 ± 0.0004 | 1.421 ± 0.0004 | –
2 | O=C(c1ccc([N+](=O)[O-])cc1)N(O)c1ccccc1 [N-hydroxy-4-nitro-N-phenylbenzamide] | – | – | – | – | – | – | – | – | 168.00 ± 2
3 | O=C(c1ccccc1)N(O)c1ccccc1 [N-phenylbenzohydroxamic acid] | 945.8 ± 0.6 | 940.4 ± 0.6 | 936.3 ± 0.6 | 931.2 ± 0.6 | 1.4269 ± 0.0004 | 1.4257 ± 0.0004 | 1.4241 ± 0.0004 | 1.4221 ± 0.0004 | 121.00 ± 2
4 | Cc1ccc(C(=O)N(O)c2ccccc2)cc1[N+](=O)[O-] [N-hydroxy-4-methyl-3-nitro-N-phenylbenzamide] | 1437 ± 0.9 | 1433.5 ± 0.9 | 1430.2 ± 0.9 | 1428.5 ± 0.9 | 1.4371 ± 0.0004 | 1.4336 ± 0.0004 | 1.4302 ± 0.0004 | 1.4286 ± 0.0004 | 117.00 ± 2
